{"source": "patent US11446244B2", "about": "(priority 2020, dated 2022)", "key": {"[1]": {"details": "intravenous administration; cited from earlier work"}, "lung metastases": {"tested_on": "lung metastases", "experiment": "Example 9: osteosarcoma lung metastasis patient case, Gemcitabine dpi", "format": "in vivo", "details": "Gemcitabine 60 dpi BID", "excerpt": "2 months later, after standard chemoradiotherapy is completed, they are found to have three 1-cm lung metastases. […] undergoes second line treatment but the lesions progress, so they are started on Gemcitabine 60 dpi BID and has stabilization for 12 months thereafter. Here also, Verteporfin, Ribavirin, and/or Gemcitabine dpi could all be given together coupled with inhaled or intravenous Perflubron (emulsion)."}, "[2]": {"experiment": "Example 8: COPD and bilateral pneumonia/ARDS patient case, acetylcysteine dpi", "format": "in vivo", "details": "dpi every 4 hours with a bronchodilator", "description": "A smoker with history of moderate chronic obstructive pulmonary disease (COPD) mixed type who has been diagnosed with acute respiratory distress syndrome (ARDS) secondary to bilateral pneumonia. The patient has a very productive cough but not expectorating significant secretions and is currently on high flow system 70% FIO2 (fraction of inspired oxygen). […] The patient is initiated on acetylcysteine dpi every 4 hours along with a bronchodilator (e.g., DUONEB albuterol and ipratropium)."}, "SARS-CoV-2": {"tested_on": "SARS-CoV-2", "details": "patients with severe COVID-19; intravenous Ribavirin versus supportive care only; cited from earlier work"}, "Coronavirus": {"tested_on": "Coronavirus", "experiment": "Example 7: coronavirus infection patient case, Ribavirin dpi", "format": "in vivo", "details": "dpi 60 mg twice daily for 6 days, started after 2 days of fever", "description": "A nonsmoker having no previous lung disease develops symptoms of fever for 2 days and is then immediately started on Ribavirin dpi 2 p or 60 mg twice daily for 6 days. […] They avoid hospitalization and thereby avoids what may have been up to an increased 15-20% risk. Verteporfin and Gemcitabine dpi could be substituted for the Ribavirin."}, "[3]": {"details": "in vivo; cited from earlier work"}, "nsp14": {"target": "nsp14 (Severe acute respiratory syndrome coronavirus, UniProt P0C6X7)", "details": "cited from earlier work"}, "SARS-CoV": {"tested_on": "SARS-CoV", "details": "BALB/c mice; cited from earlier work"}, "[4]": {"experiment": "Example 11: interstitial pulmonary fibrosis patient case, Verteporfin", "format": "in vivo", "details": "15 mg 1 p BID", "excerpt": "A nonsmoker farmer has a diagnosis of interstitial pulmonary fibrosis with progressive symptoms over the past 6 months and with reduction in FVC by Pulmonary Function testing. […] Here also, Verteporfin combined with inhaled Perflubron nintedanib may be given. Subsequent or concomitant PDT and/or SDT promotes the elimination of myofibroblasts/macrophages that are otherwise engaged in fibrosis."}, "[5]": {"details": "lipophilic solvents such as perfluorocarbons like perflubron; cited from earlier work"}, "[6]": {"details": "cited from earlier work"}, "[7]": {"target": "YAP1 (yes-associated protein 1) (Homo sapiens, UniProt P46937)", "sequence (P46937 whole entry)": "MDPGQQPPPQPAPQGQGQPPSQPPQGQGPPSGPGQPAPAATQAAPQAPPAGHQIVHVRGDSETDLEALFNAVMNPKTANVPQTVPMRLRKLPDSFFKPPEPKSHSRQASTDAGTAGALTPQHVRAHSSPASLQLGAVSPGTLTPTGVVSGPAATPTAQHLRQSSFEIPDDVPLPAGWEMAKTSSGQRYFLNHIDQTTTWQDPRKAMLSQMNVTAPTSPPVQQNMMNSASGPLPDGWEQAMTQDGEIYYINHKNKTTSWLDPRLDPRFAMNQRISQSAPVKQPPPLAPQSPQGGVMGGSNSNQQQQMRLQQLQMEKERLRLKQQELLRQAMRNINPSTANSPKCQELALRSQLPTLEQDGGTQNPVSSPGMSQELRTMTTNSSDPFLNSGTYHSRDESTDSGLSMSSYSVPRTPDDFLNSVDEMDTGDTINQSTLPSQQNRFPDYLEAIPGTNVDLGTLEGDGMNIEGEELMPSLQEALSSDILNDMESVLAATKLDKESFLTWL", "details": "cited from earlier work"}, "Glioblastoma multiforme": {"tested_on": "Glioblastoma multiforme", "experiment": "Example 12: glioblastoma multiforme patient case, Verteporfin nasal and oral inhalation", "format": "in vivo", "details": "15 mg two puffs twice daily, six weeks", "description": "The patient had standard of care treatment that included surgical resection, radiation and chemotherapy, but then had recurrence and is not candidate for surgical curative intent.\nImmunohistochemistry at the 2nd operation is positive for PD-L1 and the patient is started on Verteporfin 15 mg two puffs twice daily both nasal and oral for the next six weeks. […] Here, drug delivery via intravenous route is avoided and possible direct brain delivery via nasal pathway is enabled. Here, systematic delivery of the drug by both nasal and oral inhalation is contemplated."}}, "note": "“Also recorded” adds a separate entry of the source."}
{"compound": "Nc1ccn([C@@H]2O[C@H](CO)[C@@H](O)C2(F)F)c(=O)n1", "note": "[Gemcitabine]", "values": [{"measurement": "warning label adverse effects", "setting": "[1]", "value": "can suppress bone marrow function"}, {"measurement": "duration of stabilization of lung metastases", "setting": "lung metastases", "value": 12, "unit": "months"}]}
{"compound": "CC(=O)N[C@@H](CS)C(=O)O", "note": "[acetylcysteine, N-acetyl cysteine]", "values": [{"measurement": "clinical outcome (need for mechanical ventilation)", "setting": "[2]", "value": "avoid mechanical ventilation"}]}
{"compound": "NC(=O)c1ncn([C@@H]2O[C@H](CO)[C@@H](O)[C@H]2O)n1", "note": "[Ribavirin]", "values": [{"measurement": "negative conversion time for SARS-CoV-2 test", "setting": "SARS-CoV-2", "value": "not associated with improved negative conversion time; also recorded: not associated with reduced negative conversion time"}, {"measurement": "clinical outcome (symptoms)", "setting": "Coronavirus", "value": "symptomatic improvement"}, {"measurement": "hemoglobin concentrations", "setting": "[3]", "value": "reduces hemoglobin concentrations"}, {"measurement": "excision of Ribavirin by exonuclease activity of nsp14", "setting": "nsp14", "value": "can efficiently excise"}, {"measurement": "SARS-CoV infection in treated mice", "setting": "SARS-CoV", "value": "increased SARS-CoV1 infection"}]}
{"compound": "Verteporfin", "values": [{"measurement": "effect on lung decline", "setting": "[4]", "value": "stabilizing effect on lung decline"}, {"measurement": "solubility", "setting": "[5]", "value": "soluble in lipophilic solvents"}, {"measurement": "extent of exposure and maximal plasma concentration versus dose", "setting": "[6]; dose between 6-20 mg/m^2", "value": "proportional to the dose"}, {"measurement": "serum half-life", "setting": "[6]; in vivo", "value": "5 to 6", "unit": "h"}, {"measurement": "YAP1 inhibition", "setting": "[7]", "value": "inhibits YAP1"}, {"measurement": "tumor mass", "setting": "Glioblastoma multiforme", "value": "overall reduction in tumor mass"}]}
